Key:
[1] = tested on: plasma thrombin generation activity; design: method as in PMID 28097231; details: human, oral administration (1 gram); cited from earlier work
[2] = molecular target: T1, wt MBP-PDI-b′xa′ (Homo sapiens, UniProt P07237); test: Insulin reduction assay; type: biochemical; details: compound 100 μM, 1.5 μM protein, last read (100 min); WT alone 0.829
T1 construct: MBP-PDI-b′xa′(235–479); His-tag; made in house; host or cells: E. coli BL21 (DE3)
Protocol: (§1) The insulin reduction assay was performed to assess the enzymatic activity of PDI and its MBP-fused recombinant proteins. PDI can reduce insulin in the presence of dithiothreitol (DTT) along with increase in turbidity of the reaction mixture. We thus monitored spectrophotometrically the aggregation of reduced insulin through the increase of turbidity. The reductase activity was measured in 100 μL in presence of 600 μM insulin, 1.5 μM PDI and recombinant PDI proteins, 1 mM DTT, and with protein buffer (pH 7.4), at room temperature over 100 min by absorption at 650 nm. For inhibition assay, 100 μM of rutin, kaempferitrin, tiliroside and 2′-O-galloylhyperin or control buffer was added to the reaction system.
We further used the insulin reduction assay to measure the reductase activities of these site-directed MBP-PDI-b′xa′ mutants. This assay has typically good reproducibility as shown by a control experiment with three repetitions (Fig. S7 ^†). We found the PDI mutants maintained reductase activities in the presence of dithiothreitol (DTT). The H354A mutation lowered the reductase activity of wt MBP-PDI-b′xa′ (Fig. 3G) while other mutants had similar reductase activities with that of wt MBP-PDI-b′xa′ (Fig. 3C, F and H–J). Addition of rutin inhibited the reductase activities of both wt MBP-PDI-b′xa′ and the mutants (Fig. 3C and F–J). […] We quantified the inhibition of rutin on these MBP-PDI-b′xa′ mutants by measuring the increase of turbidity (OD650 at 100 min) upon addition of rutin (Fig. 3K).

[3] = molecular target: full-length human PDI (Homo sapiens, UniProt P07237); test: Insulin reduction assay; type: biochemical; details: compound 100 μM; for turbidity (OD650), raw kinetic read at 1:40:32: 1.5 μM protein, last read (100 min), PDI alone 1.125
Protocol: as §1

[4] = tested on: PDI; design: method as in PMID 21121641; details: read-out: inhibits PDI at; cited from earlier work

Sequence of full-length human PDI (P07237 18-508): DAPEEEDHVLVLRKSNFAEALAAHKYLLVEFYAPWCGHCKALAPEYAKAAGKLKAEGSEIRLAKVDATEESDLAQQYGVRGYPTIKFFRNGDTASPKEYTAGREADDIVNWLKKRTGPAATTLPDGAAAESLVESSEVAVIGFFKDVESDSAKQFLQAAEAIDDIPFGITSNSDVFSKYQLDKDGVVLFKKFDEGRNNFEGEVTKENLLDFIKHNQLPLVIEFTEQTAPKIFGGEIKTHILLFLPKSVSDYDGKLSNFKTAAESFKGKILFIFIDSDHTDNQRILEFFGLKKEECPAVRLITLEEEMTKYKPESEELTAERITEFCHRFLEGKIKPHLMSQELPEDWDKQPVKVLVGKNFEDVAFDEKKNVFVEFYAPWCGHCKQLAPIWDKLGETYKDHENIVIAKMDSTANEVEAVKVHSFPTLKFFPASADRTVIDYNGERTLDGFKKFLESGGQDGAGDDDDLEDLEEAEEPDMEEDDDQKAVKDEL
T1 sequence (P07237 235-479): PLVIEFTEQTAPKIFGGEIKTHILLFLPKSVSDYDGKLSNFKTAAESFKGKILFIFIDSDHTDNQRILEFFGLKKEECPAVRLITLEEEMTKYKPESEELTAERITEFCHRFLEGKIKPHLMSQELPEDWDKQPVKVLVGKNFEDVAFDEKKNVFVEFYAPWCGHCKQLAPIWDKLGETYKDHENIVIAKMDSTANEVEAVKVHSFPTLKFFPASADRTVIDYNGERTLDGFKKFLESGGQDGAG

| SMILES | reduction of plasma thrombin generation activity [1] | turbidity (OD650), raw kinetic read at 1:40:32 [2] | turbidity (OD650), raw kinetic read at 1:40:32 [3] | inhibitory activity on reductase activity ([3]; full-length human PDI) | IC50 [4] [nM] |
| --- | --- | --- | --- | --- | --- |
| O=c1c(O[C@@H]2O[C@H](CO)[C@@H](O)[C@H](O)[C@H]2O)c(-c2ccc(O)c(O)c2)oc2cc(O)cc(O)c12 [isoquercetin] | about half |  |  |  |  |
| O=C(/C=C/c1ccc(O)cc1)OC[C@H]1O[C@@H](Oc2c(-c3ccc(O)cc3)oc3cc(O)cc(O)c3c2=O)[C@H](O)[C@@H](O)[C@@H]1O [tiliroside] |  | 0.5 | 0.925 |  |  |
| C[C@@H]1O[C@@H](Oc2cc(O)c3c(=O)c(O[C@@H]4O[C@@H](C)[C@H](O)[C@@H](O)[C@H]4O)c(-c4ccc(O)cc4)oc3c2)[C@H](O)[C@H](O)[C@H]1O [kaempferitrin] |  | 0.56 | 0.998 | smaller than that of rutin |  |
| C/C1=C/[C@H](O)C(C)(C)CCC/C(C)=C/C[C@H]1OC(=O)c1ccc(O)cc1 [juniferdin] |  |  |  |  | 156 |

Reference: paper PMC9080521, “Molecular basis of rutin inhibition of protein disulfide isomerase (PDI) by combined in silico and experimental methods” (RSC Advances, 2018)
